Test results: ChEMBL document CHEMBL5126579, “Design and synthesis of efficient fluororethylene-peptidomimetic inhibitors of dipeptidyl peptidase III (DPP3)” (Bioorg Med Chem, 2022)

Key:
[1] = biological target: T1, Dipeptidyl peptidase 3 (Homo sapiens, UniProt Q9NY33); assay: Competitive inhibition of DPP3 (unknown origin) using Arg-Arg-2-naphthylamide as substrate
T1 sequence (Q9NY33 whole entry): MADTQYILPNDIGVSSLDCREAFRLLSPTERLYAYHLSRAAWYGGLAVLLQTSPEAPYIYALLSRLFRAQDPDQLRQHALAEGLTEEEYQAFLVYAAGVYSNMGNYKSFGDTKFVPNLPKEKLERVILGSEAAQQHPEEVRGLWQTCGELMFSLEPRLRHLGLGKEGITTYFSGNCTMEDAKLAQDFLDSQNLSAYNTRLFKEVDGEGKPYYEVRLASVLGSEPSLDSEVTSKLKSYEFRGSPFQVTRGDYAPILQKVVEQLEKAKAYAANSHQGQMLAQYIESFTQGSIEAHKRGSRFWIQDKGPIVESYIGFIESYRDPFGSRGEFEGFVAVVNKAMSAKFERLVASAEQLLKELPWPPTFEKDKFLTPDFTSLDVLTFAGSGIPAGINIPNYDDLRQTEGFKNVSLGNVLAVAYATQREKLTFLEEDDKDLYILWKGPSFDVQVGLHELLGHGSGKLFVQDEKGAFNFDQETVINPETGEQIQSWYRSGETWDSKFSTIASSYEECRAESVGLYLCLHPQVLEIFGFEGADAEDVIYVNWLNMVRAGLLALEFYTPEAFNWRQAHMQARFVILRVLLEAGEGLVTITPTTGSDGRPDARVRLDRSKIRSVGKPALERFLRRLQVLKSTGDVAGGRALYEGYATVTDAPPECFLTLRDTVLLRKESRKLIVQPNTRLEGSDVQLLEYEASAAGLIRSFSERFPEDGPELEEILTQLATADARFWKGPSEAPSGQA

[2] = biological target: T1, Dipeptidyl peptidase 3; assay: Inhibition of human DPP3 using Arg-Arg-2-naphthylamide as substrate assessed as reduction in release of 2-naphthylamine preincubated for 10 mins followed by substrate addition and measured for 30 mins by fluorescence based analysis
[3] = biological target: T1, Dipeptidyl peptidase 3; assay: Inhibition of DPP3 (unknown origin)

Row | Compound | IC50 [2] | further results
1 | Cc1cc(=O)c2c(cc(O)c3c4c(O)cccc4c(=O)c32)c1=O |  | IC50 [1]: 1.44 µM
2 | CC(C)[C@H](NC(=O)[C@@H](N)C(C)(C)C)/C(F)=C/[C@@H](Cc1ccccc1)C(=O)N1CCCC[C@H]1C(=O)N[C@@H](Cc1c[nH]c2ccccc12)C(=O)O | 21 µM | 
3 | CC(C)[C@H](N)C(=O)N[C@H](/C(F)=N/[C@@H](Cc1ccccc1)C(=O)N1CCC[C@H]1C(=O)N[C@@H](Cc1c[nH]c2ccccc12)C(=O)O)C(C)C | 4.6 µM | 
4 | CC(C)[C@H](N)C(=O)N[C@H](/C(F)=C/[C@@H](Cc1ccccc1)C(=O)N1CCCC[C@H]1C(=O)N[C@@H](Cc1c[nH]c2ccccc12)C(=O)O)C(C)C | 7.7 µM | 
5 | CC(C)[C@H](NC(=O)[C@@H](N)C(C)(C)C)/C(F)=C/[C@@H](Cc1ccccc1)C(=O)N1CCC[C@H]1C(=O)N[C@@H](Cc1c[nH]c2ccccc12)C(=O)O | 22.5 µM | 
6 | CC1C(=O)c2cc(O)c3c(c2C(O)C1O)C(=O)c1cccc(O)c1-3 (stereo not drawn) |  | IC50 [1]: 74 µM
7 | CC(C)[C@H](N)C(=O)N[C@@H](C(C)C)[C@H](O)N[C@@H](Cc1ccccc1)C(=O)N1CCC[C@H]1C(=O)N[C@@H](Cc1c[nH]c2ccccc12)C(=O)O |  | IC50 [3]: 8.5 µM
8 | H-VVFPW-OH |  | IC50 [3]: 0.13 µM
